From publication PMC5267425, “Identification of small molecule modulators of HIV-1 Tat and Rev protein accumulation” (Retrovirology, 2017)

System: alternative splicing of host transcripts in HeLa rtTA HIV∆Mls cells
Assay: RT-PCR of host alternative splicing events (PSI), capillary electrophoresis
Format: cell-based
Protocol: To assess the effect of compounds on expression/alternative splicing of cellular RNA, two approaches were used. For both, total RNA was prepared from DMSO or compound-treated cells. In the first assay, samples were assayed by medium throughput RT-PCR to determine the inclusion levels of alternatively spliced exons and splice sites located in 73 selected events. 73 primer sets containing a fluorescently (5-FAM) labeled primer for each, were used in RT-PCR. PCR products generated were denatured in formamide and quantified using ABI Prism capillary sequencer (Life Technologies). The fragment analysis was performed on the PeakScanner software (Life Technologies) in batch mode and automated using custom scripts written in Python. The inclusion level of each exon was calculated as the amount of transcripts carrying the alternative exon relative to the total amount of all transcripts detected in the PCR reaction and results are summarized for compound-treatment in comparison to DMSO treatment. In the second assay, extracted RNA was processed using the Illumina TruSeq RNA Sample Preparation Kit (Illumina) according to the manufacturer’s instructions. The cDNA library generated was validated (passed quality control on a Bioanalyzer 1000 DNA chip (Agilent)), normalized and pooled for cluster generation. cDNA libraries were sequenced on the Illumina HiSeq 2500 (paired-end, 125 bp) with version 4 chemistry following manufacturer’s protocols. The full human genome and transcriptomic sequences were downloaded from the UCSC Genome Browser (genome.ucsc.edu) database and Ensembl (www.ensembl.org), respectively, as described by Irimia et al.. Exon annotations and genomic coordinates for alternative splicing (AS) analysis were derived from tables downloaded from the UCSC Genome Browser database. To determine gene expression (GE) or alternative splicing (AS) changes in an unbiased way, the effective number of unique mappable positions in each transcript (i.e. the effective length) was determined by aligning sequences with unique transcriptomic alignment to the human genome using Bowtie. Reads with one unique genomic alignment were then aligned against the canonical transcriptome and, for each transcript, the number of reads with one unique transcriptomic alignment were counted. The expression level of genes was quantified as corrected ‘reads per kilobase of exon model per million mapped reads’ (cRPKM), a widely used metric to estimate gene expression levels. The expression cutoff was 0.5 cRPKM, corresponding to the transcript of the gene being present if there were ≥10 reads that mapped uniquely to a single genomic locus. Approximately 19,847 Ensembl annotated protein-coding genes were compared to create a gene list of differentially expressed genes. Genes were considered differentially expressed if fold changes in cRPKM was ≥2 in compound-treated versus DMSO-treated samples.

[1] = of 70 AS events, 791 30 µM, 833 2 µM

## Cc1cc(NCc2cccnc2)n2ncc(-c3ccc(Cl)cc3)c2n1 [Compound 791, 3-(4-chlorophenyl)-5-methyl-N-(3-pyridinylmethyl)pyrazolo[1,5-a]pyrimidin-7-amine]
9147791 minus DMSO, mean n=3
  DPSI AGPAT4_1 chr6:161506598-161506735: -4.00%
  DPSI AGPAT4_1 chr6:161507269-161507439: -6.33%
  DPSI APLP2_1 chr11:129498717-129498884: 1.33%
  DPSI APP_1 chr21:26291546-26291602: 0.33%
  DPSI APP_1 chr21:26294201-26294368: -1.33%
  DPSI ATP6V0A1_1 chr17:37919833-37920004: 2.00%
  DPSI CA12_1 chr15:61406400-61406485: -0.33%
  DPSI CA12_1 chr15:61407349-61407382: 4.67%
  DPSI CASP9_1 chr1:15703693-15703840*: -1.33%
  DPSI CAST_1 chr5:96090613-96090669: 5.33%
  DPSI CLSTN1_1 chr1:9720143-9720199: -8.67%
  DPSI CLSTN1_2 chr1:9739126-9739155: -2.33%
  DPSI CRBN_1 chr3:3191846-3191950: 0.00%
  DPSI CRBN_1 chr3:3191950-3191953: 0.00%
  DPSI CTNND1_1 chr11:57318058-57318129: -4.33%
  DPSI DNM1L_1 chr12:32782066-32782143: 9.00%
  DPSI DNM1L_1 chr12:32782465-32782497: -2.00%
  DPSI DRCTNNB1A_1 chr7:22953096-22953391: -8.00%
  DPSI EIF4A2_1 chr7:187988792-187988899: 3.33%
  DPSI EIF4A2_1 chr7:187988899-187988904: 2.00%
  DPSI EIF4H_1 chr7:73242512-73242572: 0.00%
  DPSI ERC1_1 chr12:1091641-1091725: 2.67%
  DPSI EXOC7_1 chr17:71598005-71598035: -6.00%
  DPSI EXOC7_1 chr17:71598819-71598911: -4.67%
  DPSI FAM62B_1 chr7:158238233-158238295: -8.33%
  DPSI FAM104A_1 chr17:68720412-68720474: -1.00%
  DPSI FGFR1OP2_1 chr12:27004715-27004828: -11.00%
  DPSI FIP1L1_1 chr4:53975538-53975646: -4.33%
  DPSI GGCT_1 chr7:30504943-30505080: 3.33%
  DPSI GGCT_1 chr7:30506676-30506822: 3.33%
  DPSI GLK_1 chr2:39388587-39388650: -0.33%
  DPSI GM130_1 chr9:130069293-130069374: -9.67%
  DPSI GRB10_1 chr7:50651400-50651538: -0.33%
  DPSI KIF13A_1 chr6:17879324-17879428: -1.33%
  DPSI MACF1_1 chr1:39616720-39616782: 3.33%
  DPSI MACF1_5 chr1:39719179-39719289: -13.67%
  DPSI MAP3K7_1 chr6:91310992-91311072: 0.33%
  DPSI MARK3_1 chr14:103034592-103034618: -2.67%
  DPSI MARK3_1 chr14:103036246-103036290: -1.33%
  DPSI MBD1_1 chr18:46054554-46054721: -9.33%
  DPSI MBNL2_1 chr13:96807051-96807104: 0.33%
  DPSI MFF_1 chr2:227901637-227901749: 4.33%
  DPSI MRIP_1 chr17:17024646-17024708: 1.00%
  DPSI MVK_1 chr12:108501990-108502134: 11.00%
  DPSI MVK_1 chr12:108503583-108503738: 20.33%
  DPSI NAP1L1_1 chr12:74747418-74747520: 4.67%
  DPSI NAP1L1_1 chr12:74748956-74749041: 4.33%
  DPSI NPHP3_1 chr3:133898264-133898347: -1.00%
  DPSI NUMB_2 chr14:72815742-72815885: 0.67%
  DPSI NUMB_2 chr14:72820542-72820835: 6.67%
  DPSI PDCL_1 chr9:124628716-124628892: 1.33%
  DPSI POLDIP3_1 chr22:41327919-41328006: -3.67%
  DPSI POMT1_1 chr9:133368281-133368521: 5.67%
  DPSI POMT1_1 chr9:133371321-133371428: 5.67%
  DPSI RAI14_1 chr5:34849436-34849522: 3.67%
  DPSI RAN_1 chr12:129923082-129923127: -2.00%
  DPSI RPS24_1 chr10:79467729-79467746: 1.67%
  DPSI SEC24B_1 chr4:110622281-110622386: -4.00%
  DPSI SETD5_1 chr3:9453533-9453572: -1.33%
  DPSI SMN2_1 chr5_h2_hap1:475625-475826: 0.33%
  DPSI SMN2_2 chr5_h2_hap1:466192-466246: 1.67%
  DPSI SPAG9_1 chr17:46408223-46408261: -6.67%
  DPSI SRPK2_1 chr2:104553464-104553557: -1.00%
  DPSI SRPK2_1 chr2:104553930-104554023: 0.00%
  DPSI TPM1_1 chr15:61140450-61140525: 1.67%
  DPSI TPM1_1 chr15:61140965-61141040: -1.67%
  DPSI TRIM37_1 chr17:54433741-54433857: -4.67%
  DPSI ZNF827_1 chr4:146903692-146903724: 2.33%
  DPSI ZNF827_1 chr4:146905581-146905589: -1.00%
[1]
  AS events with DPSI ≤ -10%: 2
  AS events with DPSI ≥ 10%: 0
  AS events with P ≤ 0.05: 9
